According to the supplement of paper PMC10307832:

Experiments:
Test in all cases: relative viability (nuclei count vs DMSO), 5 days (fraction); higher = more cells survive
AZD6482 + Foretinib = compound: Cc1cc([C@@H](C)Nc2ccccc2C(=O)O)c2nc(N3CCOCC3)cc(=O)n2c1 [AZD6482] + COc1cc2c(Oc3ccc(NC(=O)C4(C(=O)Nc5ccc(F)cc5)CC4)cc3F)ccnc2cc1OCCCN1CCOCC1 [Foretinib] (partner 0.25 µM)
Summary of the method: (§1)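 Lung cancer cell lines, seeded in 1536-well plates, were treated the following day by pin tool with a single drug or with five library-drug doses (not always all listed) in √10 steps on top of a fixed anchor-drug dose. Cells were fixed and nuclei stained in one step after 5 days, and nuclei were counted. Relative viability is the nuclei count for treated wells divided by that for vehicle wells, reported as medians of duplicate plates.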

AZD6482 + Pictilisib = compound: Cc1cc([C@@H](C)Nc2ccccc2C(=O)O)c2nc(N3CCOCC3)cc(=O)n2c1 [AZD6482] + CS(=O)(=O)N1CCN(Cc2cc3nc(-c4cccc5[nH]ncc45)nc(N4CCOCC4)c3s2)CC1 [Pictilisib] (partner 1 µM)
Summary of the method: as §1

[1] = compound: COc1cc2nc(N3CCCN(C)CC3)nc(NC3CCN(Cc4ccccc4)CC3)c2cc1OC
Summary of the method: (§2)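 After an overnight hold at 37 °C, lung cancer cell lines in 1536-well plates were pinned with five library-drug doses (not always all listed), each √10 from the next, on vehicle-anchored plates. The cells stayed 5 days without fresh medium, then a one-step fix, permeabilisation and Hoechst stain preceded 4× imaging and MetaXpress nuclear counts. A plate passed only with control CV under 25% and at least one doubling. Viability is the median, over plates, of treated-well nuclei relative to vehicle-well nuclei.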

AZD6482 = compound: Cc1cc([C@@H](C)Nc2ccccc2C(=O)O)c2nc(N3CCOCC3)cc(=O)n2c1 [AZD6482]
Summary of the method: as §2

**Q.** With UMC-11 as the cell line, how does the relative viability (AZD6482 + Foretinib; first compound 0.08 µM) read?
**A.** 1.01

**Q.** What about the relative viability (AZD6482 + Foretinib; first compound 0.253 µM) of the same cell line?
**A.** 0.988

**Q.** And the relative viability (AZD6482 + Foretinib; first compound 0.8 µM)?
**A.** 0.997

**Q.** And the relative viability (AZD6482 + Foretinib; first compound 2.53 µM)?
**A.** 0.815

**Q.** What about the relative viability (AZD6482 + Foretinib; first compound 8 µM) of the same cell line?
**A.** 1.13

**Q.** And the relative viability (AZD6482 + Pictilisib; first compound 0.08 µM)?
**A.** 0.757

**Q.** And the relative viability (AZD6482 + Pictilisib; first compound 0.253 µM)?
**A.** 0.817

**Q.** And the relative viability (AZD6482 + Pictilisib; first compound 0.8 µM)?
**A.** 0.841

**Q.** And the relative viability (AZD6482 + Pictilisib; first compound 2.53 µM)?
**A.** 0.503

**Q.** And the relative viability (AZD6482 + Pictilisib; first compound 8 µM)?
**A.** 1.04

**Q.** What about the relative viability ([1]; 0.2 µM) of the same cell line?
**A.** 0.998

**Q.** And the relative viability ([1]; 0.6325 µM)?
**A.** 0.973

**Q.** And the relative viability ([1]; 2 µM)?
**A.** 1.06

**Q.** What about the relative viability ([1]; 6.325 µM) of the same cell line?
**A.** 0.932

**Q.** And the relative viability (AZD6482; 0.08 µM)?
**A.** 0.949

**Q.** What about the relative viability (AZD6482; 0.253 µM) of the same cell line?
**A.** 0.94

**Q.** And the relative viability (AZD6482; 0.8 µM)?
**A.** 1.01

**Q.** What about the relative viability (AZD6482; 2.53 µM) of the same cell line?
**A.** 0.736

**Q.** What about the relative viability (AZD6482; 8 µM) of the same cell line?
**A.** 1.22
